Reference: paper PMC11952222, “Development and comparison of single FLT3-inhibitors to dual FLT3/TAF1-inhibitors as an anti-leukemic approach” (PLOS One, 2025)
Positions count from the first letter of the chain named. Several values for one entry are separate records, joined by “and”; a condition that tells them apart may be missing. Equal entries are not always repeated. Where two headings read alike, the source gives them in different places.

Tests used:
FLT3 = target: T1, FLT3 (Homo sapiens, UniProt P36888); assay: Eurofins/DiscoverX cell free kinase assay, percent control; format: binding; conditions: for per_control_1000nM FLT3: 1000 nM compound; for per_control_10000nM FLT3: 10000 nM compound
T1 construct: purchased Eurofins/DiscoverX
T1 sequence (P36888 27-993): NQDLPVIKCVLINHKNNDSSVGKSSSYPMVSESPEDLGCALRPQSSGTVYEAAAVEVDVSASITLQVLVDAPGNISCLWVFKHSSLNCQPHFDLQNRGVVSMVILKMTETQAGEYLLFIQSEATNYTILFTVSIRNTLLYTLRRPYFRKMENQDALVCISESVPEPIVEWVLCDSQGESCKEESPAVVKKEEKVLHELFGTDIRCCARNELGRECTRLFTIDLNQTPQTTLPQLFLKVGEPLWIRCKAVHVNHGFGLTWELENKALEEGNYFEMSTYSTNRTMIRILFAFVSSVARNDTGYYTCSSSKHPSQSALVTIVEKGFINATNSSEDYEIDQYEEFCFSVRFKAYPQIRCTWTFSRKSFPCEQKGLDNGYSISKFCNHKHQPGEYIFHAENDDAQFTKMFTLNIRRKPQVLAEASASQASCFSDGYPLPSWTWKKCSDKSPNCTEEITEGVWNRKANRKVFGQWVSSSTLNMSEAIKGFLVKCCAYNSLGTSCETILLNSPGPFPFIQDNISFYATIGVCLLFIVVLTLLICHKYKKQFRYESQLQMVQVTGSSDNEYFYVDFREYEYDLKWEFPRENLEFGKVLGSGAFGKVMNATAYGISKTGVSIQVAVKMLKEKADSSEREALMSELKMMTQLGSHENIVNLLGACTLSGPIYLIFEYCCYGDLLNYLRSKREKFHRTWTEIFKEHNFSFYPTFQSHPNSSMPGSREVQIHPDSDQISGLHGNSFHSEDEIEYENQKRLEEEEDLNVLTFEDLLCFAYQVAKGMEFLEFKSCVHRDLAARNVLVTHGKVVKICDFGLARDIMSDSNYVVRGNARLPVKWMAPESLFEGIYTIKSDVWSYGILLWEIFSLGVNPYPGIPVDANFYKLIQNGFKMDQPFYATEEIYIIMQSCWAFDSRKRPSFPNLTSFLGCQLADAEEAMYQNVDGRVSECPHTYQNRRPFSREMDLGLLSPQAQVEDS
Procedure: (§1) The 3i-compounds underwent activity testing against a panel of 32 bromodomains using the Eurofins/DiscoverX bromoMAX assay, with specific focus on TAF1(2) bromodomain assessed by the KdELECT assay. In a similar manner, kinase activity was evaluated using a panel of 97 kinase proteins using the Eurofins/DiscoverX scanELECT and KdELECT assays, with specific focus on FLT3 protein. An 11-point 3-fold serial dilution of each test compound was prepared in 100% DMSO at 100x final test concentration and subsequently diluted to final concentration (DMSO 1%). […] Percent control was calculated using the following formula: ((test compound signal – positive control signal)/ (negative control signal – positive control signal)) × 100.
(§2) Fig 2 Results of 3i-compound series at concentrations of 1 µM and 10 µM in a cell free Eurofins/DiscoverX assay for kinase and bromodomain proteins. (A) Single-targeted compounds with tyrosine kinase activity but without bromodomain activity. (B) Dual-targeted compounds with both tyrosine kinase and bromodomain activity.

FLT3(D835V) = target: T2, FLT3(D835V) (Homo sapiens, UniProt P36888, D835V); assay: as above; format: binding; conditions: for per_control_1000nM FLT3(D835V): 1000 nM compound; for per_control_10000nM FLT3(D835V): 10000 nM compound
T2 construct: purchased Eurofins/DiscoverX
T2 sequence (P36888 27-993 D835V): T1 sequence (P36888 27-993) with D809V
Procedure: as §1, §2

FLT3(ITD) = assay: as above; format: binding; conditions: for per_control_1000nM FLT3(ITD): 1000 nM compound; for per_control_10000nM FLT3(ITD): 10000 nM compound
Procedure: as §1, §2

FLT3(ITD,D835V) = assay: as above; format: binding; conditions: for per_control_1000nM FLT3(ITD,D835V): 1000 nM compound; for per_control_10000nM FLT3(ITD,D835V): 10000 nM compound
Procedure: as §1, §2

IGROV1 cells = assay: Cell viability, CellTiter Glo, IGROV1; format: cell-based
Procedure: Drug sensitivity and resistance testing in MOLM13, DU4475, HDQP1, and IGROV1 cells was conducted at the Finnish Institute for Molecular Medicine (FIMM), University of Helsinki. In brief, the effects of compounds on cell viability and cell death were quantified with Cell-Titer Glo (Promega) and CellTox Green (Promega), respectively. Compounds or vehicle control were included in cell culture medium at described concentrations for 72h using an automated liquid dispenser in 384-well format. For KASUMI-1 experiments, cells were grown in 96-well plates and similarly incubated with compounds at indicated concentrations for 72h in RPMI + 10% FCS + Gentamicin, followed by lysis and quantification of cell viability with Cell-Titer Glo (Promega).
Raw values from viability and toxicity assays were normalized to DMSO and plotted to heat maps in R using pheatmap (RRID:SCR_016418). Dose-response curves were generated using the drc package in R [40]. In brief, nonlinear modelling was performed to calculate IC50 values for each compound where possible and resulting curves from drc and experimental values were plotted using ggplot2 (RRID:SCR_014601).

[1] = 72h, one independent experiment per value, read-out: IGROV1 IC50, individual dose-response curve (CellTiter Glo)
[2] = Homo sapiens, IGROV-1, 72 h, mean of n = 3 independent experiments, read-out: IGROV1 IC50 (CellTiter Glo)
[3] = Homo sapiens, IGROV-1, 72 h, one independent experiment per value, read-out: IGROV1 IC50, individual dose-response curve (CellTiter Glo)

Cc1cc(-c2cc(NC(=O)c3ccc(C(C)(C)C)cc3)[nH]n2)ccn1 [Compound 3i-1246, 4-(tert-butyl)-N-(3-(2-methylpyridin-4-yl)-1H-pyrazol-5-yl)benzamide]
per_control_1000nM FLT3 (FLT3): 0 percent control
per_control_10000nM FLT3 (FLT3): 0.2 percent control
per_control_1000nM FLT3(D835V) (FLT3(D835V)): 0.5 percent control
per_control_10000nM FLT3(D835V) (FLT3(D835V)): 0.55 percent control
per_control_1000nM FLT3(ITD) (FLT3(ITD)): 2.7 percent control
per_control_10000nM FLT3(ITD) (FLT3(ITD)): 1.2 percent control
per_control_1000nM FLT3(ITD,D835V) (FLT3(ITD,D835V)): 0.55 percent control
per_control_10000nM FLT3(ITD,D835V) (FLT3(ITD,D835V)): 0.2 percent control
IC50 (IGROV1 cells; [1]): 11.6 µM and 8.8 µM
IC50 (IGROV1 cells; [2]): 10.9 µM
IC50 (IGROV1 cells; [3]): 12.1 µM

COc1ccc(-c2cc(NC(=O)c3ccc(C(C)(C)C)cc3)[nH]n2)cc1 [Compound 3i-1103]
per_control_1000nM FLT3 (FLT3): 0 percent control
per_control_10000nM FLT3 (FLT3): 0 percent control
per_control_1000nM FLT3(D835V) (FLT3(D835V)): 0.9 percent control
per_control_10000nM FLT3(D835V) (FLT3(D835V)): 0 percent control
per_control_1000nM FLT3(ITD) (FLT3(ITD)): 1.2 percent control
per_control_10000nM FLT3(ITD) (FLT3(ITD)): 2.1 percent control
per_control_1000nM FLT3(ITD,D835V) (FLT3(ITD,D835V)): 42 percent control
per_control_10000nM FLT3(ITD,D835V) (FLT3(ITD,D835V)): 6 percent control
IC50 (IGROV1 cells; [1]): > 30 µM
IC50 (IGROV1 cells; [3]): 17.8 µM

Cn1cc(-c2cc(NC(=O)c3ccc(C(C)(C)C)cc3)n[nH]2)ccc1=O [Compound 3i-1248, 4-(tert-butyl)-N-(5-(1-methyl-6-oxo-1,6-dihydropyridin-3-yl)-1H-pyrazol-3-yl)benzamide]
per_control_1000nM FLT3 (FLT3): 6.7 percent control
per_control_10000nM FLT3 (FLT3): 0.15 percent control
per_control_1000nM FLT3(D835V) (FLT3(D835V)): 1.3 percent control
per_control_10000nM FLT3(D835V) (FLT3(D835V)): 0.7 percent control
per_control_1000nM FLT3(ITD) (FLT3(ITD)): 0 percent control
per_control_10000nM FLT3(ITD) (FLT3(ITD)): 12 percent control
per_control_1000nM FLT3(ITD,D835V) (FLT3(ITD,D835V)): 5.3 percent control
per_control_10000nM FLT3(ITD,D835V) (FLT3(ITD,D835V)): 0.15 percent control
IC50 (IGROV1 cells; [1]): 10.5 µM and 7.7 µM
IC50 (IGROV1 cells; [2]): 10 µM
IC50 (IGROV1 cells; [3]): 11.8 µM

CC(C)(C)c1ccc(C(=O)Nc2cc(-c3ccccc3)n[nH]2)cc1 [Compound 3i-1247, 4-(tert-butyl)-N-(3-phenyl-1H-pyrazol-5-yl)benzamide]
per_control_1000nM FLT3 (FLT3): 12 percent control
per_control_10000nM FLT3 (FLT3): 0 percent control
per_control_1000nM FLT3(D835V) (FLT3(D835V)): 2.5 percent control
per_control_10000nM FLT3(D835V) (FLT3(D835V)): 0 percent control
per_control_1000nM FLT3(ITD) (FLT3(ITD)): 3.2 percent control
per_control_10000nM FLT3(ITD) (FLT3(ITD)): 12 percent control
per_control_1000nM FLT3(ITD,D835V) (FLT3(ITD,D835V)): 11 percent control
per_control_10000nM FLT3(ITD,D835V) (FLT3(ITD,D835V)): 0.3 percent control
IC50 (IGROV1 cells; 72h, mean of n = 3 independent experiments, read-out: IGROV1 IC50 (CellTiter Glo)): 3.3 µM
IC50 (IGROV1 cells; [1]): 3.5 µM and 3.8 µM and 2.5 µM
